# Laboratory results as given in patent US5935636A, “Trehalose and its production and use” (Kabushiki Kaisha Hayashibara Seibutsu Kagaku Kenkyujo, priority 1994, dated 1999).
# Counter-ions that a name gives are not always drawn. Like-named read-outs stand apart in the source and are kept apart here.
# Columns and labels:
# [1] = test system: maltose/trehalose conversion enzyme derived from Pseudomonas putida H262; assay type: biochemical
# Method: (§1) Maltose/trehalose conversion enzymes are assayed as follows: 1 ml of 20 w/v % maltose as substrate in 10 mM phosphate buffer (pH7.0) is added with 1 ml enzyme liquid, allowed to react at 25° C., 35° C. or 60° C. for 60 minutes and heated at 100° C. for 10 minutes to suspend the reaction. The reaction liquid is accurately diluted by 11-times in 50 mM phosphate buffer (pH7.5) and 0.4 ml of the diluted liquid is added with 0.1 ml of 1 unit/ml trehalase solution, incubated at 45° C. for 120 minutes and determined for glucose level by the glucose oxidase method. […] The amount of the trehalose formed by maltose/trehalose conversion enzyme is estimated with the increased amount of glucose as determined by the above measurement and one unit of the enzyme is defined as the amount of enzyme that forms one micromole of trehalose for one minute.
# (§2) Effects of temperature and pH on the activity of the enzyme were investigated in accordance with the assay method. […] The thermal stability of the enzyme was determined by incubating the enzyme in 50 mM phosphate buffer (pH7.0) at different temperatures for 60 minutes, cooling with water and assaying the residual activities. While the pH stability was determined by incubating at 35° C. for 60 minutes in 50 mM phosphate buffer with different pH levels, adjusting to pH7.0 and assaying the residual enzyme activities.
# [2] = molecular target: T1, maltose/trehalose conversion enzyme derived from Pimelobacter species R48 (Pimelobacter sp., UniProt P72235); test: Inhibition of enzymatic activity; assay type: biochemical
# T1 construct: The culture obtained in Experiment 1 was centrifugally separated to collect the cells; made in house; host or cells: native producer Pimelobacter species R48 (FERM BP-4315), purified from disrupted cells
# T1 sequence (P72235 1-573): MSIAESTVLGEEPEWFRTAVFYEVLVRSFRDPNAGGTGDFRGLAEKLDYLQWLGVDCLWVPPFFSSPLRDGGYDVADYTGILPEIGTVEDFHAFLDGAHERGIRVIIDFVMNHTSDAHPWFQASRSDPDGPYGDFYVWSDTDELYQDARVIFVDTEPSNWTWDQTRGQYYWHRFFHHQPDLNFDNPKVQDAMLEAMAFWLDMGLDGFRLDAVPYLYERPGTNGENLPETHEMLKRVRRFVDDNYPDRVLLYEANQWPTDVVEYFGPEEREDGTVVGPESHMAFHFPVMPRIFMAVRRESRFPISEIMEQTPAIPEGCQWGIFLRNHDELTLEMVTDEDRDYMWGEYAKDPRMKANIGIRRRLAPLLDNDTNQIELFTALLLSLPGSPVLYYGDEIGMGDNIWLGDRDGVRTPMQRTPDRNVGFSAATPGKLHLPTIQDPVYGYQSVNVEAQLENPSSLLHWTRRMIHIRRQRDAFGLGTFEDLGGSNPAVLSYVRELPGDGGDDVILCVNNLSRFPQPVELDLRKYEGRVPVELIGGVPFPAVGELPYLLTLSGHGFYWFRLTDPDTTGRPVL
# Method: as §1
# as §2, with “20°” for “35°”
# [3] = molecular target: T2, maltose/trehalose conversion enzyme derived from Thermus aquaticus (ATCC33923) (Thermus thermophilus, UniProt O06458); test: Inhibition of enzymatic activity; assay type: biochemical
# T2 construct: The culture obtained in Experiment 15 was centrifugally separated to collect the cells; made in house; host or cells: native producer Thermus aquaticus (ATCC33923), purified from disrupted cells
# T2 sequence (O06458 1-963): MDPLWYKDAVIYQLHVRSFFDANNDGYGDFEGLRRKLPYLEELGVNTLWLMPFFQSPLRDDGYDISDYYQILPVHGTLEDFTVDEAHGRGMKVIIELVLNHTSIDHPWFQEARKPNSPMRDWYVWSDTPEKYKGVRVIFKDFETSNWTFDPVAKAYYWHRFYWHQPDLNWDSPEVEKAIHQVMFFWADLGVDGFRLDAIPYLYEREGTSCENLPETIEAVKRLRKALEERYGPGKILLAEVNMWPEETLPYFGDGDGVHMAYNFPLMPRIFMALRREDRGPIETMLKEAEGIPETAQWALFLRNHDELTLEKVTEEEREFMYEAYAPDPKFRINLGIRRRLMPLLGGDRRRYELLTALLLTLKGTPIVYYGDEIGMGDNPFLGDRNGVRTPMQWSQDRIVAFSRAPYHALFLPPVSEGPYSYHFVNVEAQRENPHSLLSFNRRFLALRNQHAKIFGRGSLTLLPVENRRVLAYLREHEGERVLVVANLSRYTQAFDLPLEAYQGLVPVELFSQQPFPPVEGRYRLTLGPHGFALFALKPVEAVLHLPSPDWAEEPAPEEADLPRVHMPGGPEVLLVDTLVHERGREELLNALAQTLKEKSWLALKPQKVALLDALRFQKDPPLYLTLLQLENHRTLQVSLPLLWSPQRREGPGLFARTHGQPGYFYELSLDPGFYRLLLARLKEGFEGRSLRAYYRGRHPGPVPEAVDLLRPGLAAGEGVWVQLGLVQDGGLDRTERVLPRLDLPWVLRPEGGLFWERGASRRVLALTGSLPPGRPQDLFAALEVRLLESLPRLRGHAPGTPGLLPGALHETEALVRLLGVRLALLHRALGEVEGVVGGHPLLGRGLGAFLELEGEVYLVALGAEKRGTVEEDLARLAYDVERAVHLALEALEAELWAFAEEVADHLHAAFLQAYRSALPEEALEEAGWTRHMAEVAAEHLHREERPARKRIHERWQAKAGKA
# Method: as §1
# as §2, with “60°” for “35°”
# [4] = Test for assimilation in vivo (blood sugar and insulin levels); conditions: healthy three men
# Method: In accordance with the method reported by Atsuji et al., Rinsho Eiyo (Clinical Nutrition), Vol.41, No.2, pp.200-208 (1972), 30g of the high-purity trehalose, purity of 99.8%, prepared in Experiment 8 was prepared into 20 w/v % aqueous solution and orally administered to healthy three men, age of 26, 27 and 30 years, after which their bloods were periodically sampled and measured for blood sugar and insulin levels. Glucose was used as control. […] Thus the trehalose and saccharide containing the same are suitable as saccharide source for energy supplement.
# [5] = Physicochemical properties of trehalose preparations: solubility; conditions: in 25° C. water
# Method: A high-purity trehalose prepared by the method in Experiment 8 was tested for physicochemical properties. […] These physical values were in good agreement with those of a simultaneously tested commercially-available crystalline trehalose hydrate, a product of Wako Pure Chemical Industries, Ltd., Osaka, Japan.
# [6] = test system: mice; test: Acute toxicity test; assay type: in vivo; conditions: orally administered in mice, possible highest dose
# Method: An acute toxicity test was conducted on a high-purity trehalose prepared in Example A-6, where it was orally administered in mice. As the result, trehalose was a low toxic substance causing no death even in the possible highest dose. Thus its LD50 would be briefly 50 g/kg or higher.
# [7] = test system: partially-purified enzymes derived from conventional microorganisms of the genus Thermus; test: Action on a variety of saccharides, partially-purified enzymes; assay type: biochemical; conditions: method of Experiment 18
# Method: Among conventional microorganisms, the specified microorganisms which had been confirmed for production of the maltose/trehalose conversion enzyme according to the present invention were cultivated in flasks for 48 hours in accordance with the method in Experiment 15. Respective cultures were checked for enzymatic activity and then subjected to cell disrupter in accordance with the method in Experiment 16 and the supernatants were dialyzed to obtain partially-purified enzymes which were then investigated for properties in accordance with the method in Experiment 17.
# [8] = test system: purified enzyme from Pseudomonas putida H262; test: Action on a variety of saccharides (substrate feasibility, TLC); assay type: biochemical; conditions: method of Experiment 4, reaction temperature 35° C.
# Method: (§3) A variety of saccharides were tested for feasibility as substrate.
# (§4) Each solution was added with 2 units/g substrate solid of a purified maltose/trehalose conversion enzyme obtained by the method in Experiment 2, adjusted to give respective substrate concentrations of 5 w/v % and reacted at 20° C. and pH7.0 for 24 hours. Before and after the reaction the solutions were subjected to thin-layer chromatography (TLC) on "[…] 60", an aluminum plate, width and length of 20 cm respectively, commercialized by Merck & Co., Inc., New Jersey, USA, to check the enzymatic action on respective saccharides. TLC was developed at ambient temperature with a mixture solvent of 1-butanol, pyridine and water (6:4:1 by volume). Coloration was carried out by first spraying 20% sulfuric acid/methanol solution, then heating at 110° C. for 10 minutes.
# A variety of saccharides were tested for feasibility as substrate for the purified enzyme from Pseudomonas putida H262 obtained in Experiment 10 in accordance with the method in Experiment 4 except that the reaction temperature was set to 35° C. As the result, like the enzyme from Pimelobacter species R48, the enzyme from Pseudomonas putida H262 acted on only maltose and trehalose to convert maltose to trehalose as well as to convert trehalose to maltose.
# [9] = molecular target: T3, purified maltose/trehalose conversion enzyme from Pimelobacter species R48 (Pimelobacter sp., UniProt P72235); test: as above; assay type: biochemical; conditions: 20° C., pH7.0, 24 hours
# T3 construct: The culture obtained in Experiment 1 was centrifugally separated to collect the cells; made in house; host or cells: native producer Pimelobacter species R48 (FERM BP-4315), purified from disrupted cells
# T3 sequence (P72235 1-573): T1 sequence (P72235 1-573)
# Method: as §3, §4
# [10] = 30 g as 20 w/v % aqueous solution, oral
Compound,Inhibition of activity ([1]; 1 mM),Inhibition of activity ([2]; 1 mM),Inhibition of activity ([3]; 1 mM),action of the enzymes on saccharides (in words) [7],action of the enzyme on saccharides (in words) [8],action of the enzyme on saccharides (in words) [9],other results
[Cu+2] [Cu^2+],Inhibited,Inhibited,Inhibited,–,–,–,"Inhibition of activity ([3]; 1 mM, listed as C^2+): inhibited"
"OC[C@H]1O[C@H](O[C@H]2O[C@H](CO)[C@@H](O)[C@H](O)[C@H]2O)[C@H](O)[C@@H](O)[C@@H]1O [trehalose, alpha,alpha-trehalose]",–,–,–,acted on,acted on,acted on,"time at which blood sugar level reached maximum after administration [4, 10]: 0.5 to 1 h; time at which insulin level reached maximum after administration [4, 10]: 0.5 to 1 h; digestion, absorption and utilization (in words) ([4]; 30 g oral, glucose as control): readily digested and absorbed and then metabolized and utilized as energy source; solubility as anhydrous substance [5]: 77.0 g; death in acute toxicity test [6]: no death"
[Hg+2] [Hg^2+],Inhibited,Inhibited,Inhibited,–,–,–,–
"NC(CO)(CO)CO [Tris-HCl buffer, Tris-HCl]",–,–,–,–,–,–,Inhibition of activity [1]: Inhibited; Inhibition of activity [2]: Inhibited; Inhibition of activity [3]: Inhibited
OC[C@H]1O[C@H](O[C@H]2[C@H](O)[C@@H](O)[C@H](O)O[C@@H]2CO)[C@H](O)[C@@H](O)[C@@H]1O [Maltose],–,–,–,acted on,acted on,acted on,–
